Like-named read-outs stand apart in the source and are kept apart here.
Tests used:
[1] = Pharmacokinetic investigation in mice (PO and IP); format: in vivo, mice of BALB/c line; details: BALB/c, mouse, plasma, read-out: % F (PO/IV)
[2] = test system: transcription factor Gli1; experiment: Suppression of transcription factor Gli1 induction in Panc1 cell culture; format: cell-based, human; details: 20 mkM, 72 hours, Panc1 cells
Protocol: Examples of suppression of the transcription factor Gli1 induction in human's tumor cell culture Panc1 by compounds of the general formulas I-VIII are presented in FIG. 2. […] This effect could be enhanced at combined action of the tested compound and kinas inhibitor (oncolitic Iressa). For caning out the experiments the tumour cell culture Panc1 was cultivated for 72 hours in the presence of 20 mkM of tested compounds.
Measurements of expression level Gli1 were carried out by determination of HGli mRNA amount according to the method [Lauth M., Bergstrom A., Shimokawa T., Toftgard R. Inhibition of GLI-mediated transcription and tumor cell growth by small-molecule antagonists. PNAS. 2007, 104(20): 8455-8460].

[3] = Pharmacokinetic investigation in mice (PO and IP); format: in vivo, mice of BALB/c line; details: BALB/c, mouse, plasma; for half-life: read-out: T½
Protocol: Pharmacokinetic investigations were carried out on mice of BALB/c line. All animals were divided into three groups in a random manner: two experimental groups were used for pharmacokinetic analyses at peroral (PO) and intraperitoneal (IP) ways of substance introduction in various doses, and the control group for getting intact blood plasma.
Blood samples were taken by decapitation of animals before introduction of medicament (control samples), and by decapitation in 5, 15, 30, 60, 120 and 240 minutes after introduction of medicament. Three mice were used for each time interval point.
Analysis of samples comprising compounds of the general formulas I-VIII was carried out by Chromato-Mass-Spectrometry method. The data were analysed by means of software package WinNonLin (Pharsight, CIIIA).
Oral bioavailability % F of compounds of the general formulas I-VIII was calculated on the basis of experimental results according to the following equation: % F=[AUC0→t,(PO)/AUC0→t,(IP)]×100%.

Hh-signalling cascade = experiment: Inhibition of SHh-induced alkaline phosphatase in C3H10T1/2 cells (Hh-signalling cascade inhibition); format: cell-based; details: Mus musculus, C3H 10T1/2, half maximal inhibition of SHh (0.3 μg/ml) stimulation of cell alkaline phosphatase
In short: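 C3H10T1/2 cells preincubated 30 min with compound (screen at 10 μM; IC50 from triplicate dilution series), then stimulated with 0.3 μg/ml recombinant SHh for 3 days at 37 °C. Alkaline phosphatase measured by CSPD luminescence in 0.2% Triton-X100 lysates; IC50 = half-maximal inhibition of SHh-induced activity.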

[4] = Maximum tolerated dose, intraperitoneal once daily for 5 days; details: mouse, in vivo, ip, male SHK mice
Protocol: Maximum tolerated dose of compounds was determined in tests on male mice of SHK line by intraperitoneal once daily introduction of the compounds in doses from 30 to 300 mg/kg during 5 days. 8 Mice were used in each group. Weight of mice and also animals' mortality were registered. […] According to the classification of chemical compounds toxicity the investigated compounds may be referred to low-toxic substances.

[5] = test system: human's pancreatic carcinoma Panc1; experiment: Antitumour activity in Panc1 xenograft mice model; format: in vivo, mice Balb-c/nude
Protocol: Example of antitumour activity of compound III-1029 towards human's pancreatic carcinoma model Panc1, implanted to immunodeficient transgenic (naked) mice Balb-c/nude, is presented in FIG. 3. Mice of 8 weeks age which were implanted with pancreatic carcinoma by injection of 4×10^6 tumour cells were used in the experiments. Introduction of tested compound (peroral 50 mg/kg, daily during 14 days) was started in 7 days after transplantation of tumour (an average size of tumour was 30-60 mm^3). As a result of the tests it was shown that under the said way of introduction compound III-1029 suppresses tumour growth on 67% in comparison with the control group (mice with implanted tumour not treated with compound III-1029).
Example of antitumour activity of compounds III-1017 and III-1011 towards human's pancreatic carcinoma Panc1, implanted to immunodeficient transgenic (naked) mice Balb-c/nude, is presented in FIG. 4. Mice of 8 weeks age which were implanted with pancreatic carcinoma by injection of 4×10^7 tumour cells were used in the experiments. Introduction of tested compound (intraperitoneally […], daily during 21 days) was started in 8 days after transplantation of tumour (an average size of tumour is 60-140 mm^3). As a result of the tests it was shown that under the said way of introduction compounds III-1017 and III-1011 suppress tumour growth on 27 and 46% in comparison with the control group (mice with implanted tumour not treated with the tested compounds).

Smo receptors = biological target: T1, Smo receptors (Homo sapiens, UniProt Q99835); experiment: Displacement of bodipy-cyclopamine from Smo receptors in Smo-HEK cells; format: binding; details: half-maximal displacement of bodipy-cyclopamine
T1 construct: expressed in transfected cells; host or cells: HEK cells (Smo-HEK)
T1 sequence (Q99835 28-787): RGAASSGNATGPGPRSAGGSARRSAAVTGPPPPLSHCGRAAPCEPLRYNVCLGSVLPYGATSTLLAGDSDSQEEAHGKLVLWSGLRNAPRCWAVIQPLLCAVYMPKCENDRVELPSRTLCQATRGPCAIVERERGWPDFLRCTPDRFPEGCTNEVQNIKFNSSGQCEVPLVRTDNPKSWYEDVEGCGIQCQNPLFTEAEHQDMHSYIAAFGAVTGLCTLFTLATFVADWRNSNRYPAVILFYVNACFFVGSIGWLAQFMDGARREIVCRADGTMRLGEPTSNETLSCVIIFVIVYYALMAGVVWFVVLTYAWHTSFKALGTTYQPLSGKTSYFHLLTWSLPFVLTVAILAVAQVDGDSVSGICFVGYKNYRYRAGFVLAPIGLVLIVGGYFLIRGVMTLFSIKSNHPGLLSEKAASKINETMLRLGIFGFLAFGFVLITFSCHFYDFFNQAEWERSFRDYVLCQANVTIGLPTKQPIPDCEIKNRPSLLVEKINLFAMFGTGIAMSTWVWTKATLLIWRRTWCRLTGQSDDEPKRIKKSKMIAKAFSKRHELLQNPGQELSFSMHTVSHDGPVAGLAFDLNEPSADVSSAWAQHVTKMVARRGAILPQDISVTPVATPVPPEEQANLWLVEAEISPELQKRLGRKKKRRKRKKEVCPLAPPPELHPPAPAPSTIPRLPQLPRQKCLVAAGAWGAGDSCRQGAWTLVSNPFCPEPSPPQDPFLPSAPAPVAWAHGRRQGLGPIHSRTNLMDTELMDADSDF
Protocol: Binding parameters to Smo receptors for some of compounds of the general formulas I-VIII are presented in table 11 as the values of half-maximal displacement of cyclopamine labelled with fluorescent dye (bodipy-cyclopamine). The tests were carried out for Smo-HEK cells, comprising artificially expressed protein Smo.

[6] = intraperitoneally 100 m mg/kg, daily during 21 days

| IC50 (Hh-signalling cascade) | melting point | Structure (SMILES) | bioavailability [1] | MTD at 5 days [4] | also measured |
| --- | --- | --- | --- | --- | --- |
| – | – | Cc1cccn2cc(-c3ccc(NC(=O)c4ccccc4F)cc3)nc12 [III-1011, 2-Fluoro-N-[4-(8-methylimidazo[1,2-a]pyridin-2-yl)phenyl]benzamide] | 64% | > 200 mg/kg | Cmax ([3]; IP, 5 mg/Kg): 1040 ng/mL; half-life ([3]; IP, 5 mg/Kg): 0.733 h; Cmax ([3]; PO, 5 mg/Kg): 564 ng/mL; half-life ([3]; PO, 5 mg/Kg): 0.967 h; Suppression of tumour growth in comparison with the control group [5, 6]: 46%; IC50 (Smo receptors): 93 nM |
| – | – | CN1CCN(C(=O)C2CCN(C(=O)c3cc4sccc4n3Cc3ccc(Cl)cc3)CC2)CC1 [V-1017, [4-(4-Chlorobenzyl)-4H-thieno[3,2-b]pyrrol-5-yl][4-(4-methylpiperazine-1-carbonyl)-piperidin-1-yl]methanone] | 63% | > 200 mg/kg | Cmax ([3]; IP, 5 mg/Kg): 289 ng/mL; half-life ([3]; IP, 5 mg/Kg): 1.13 h; Cmax ([3]; PO, 20 mg/Kg): 758 ng/mL; half-life ([3]; PO, 20 mg/Kg): 2.28 h; IC50 (Smo receptors): 40 nM |
| < 500 nM | 203 to 205 °C | CCOc1ccc(NC(=O)c2ccnc(N3CCC(C(=O)NCCCc4ccccc4)CC3)c2)cc1 [VI-1001, 3,4,5,6-Tetrahydro-2H-[1,2]bipyridinyl-4,4′-carboxylic acid 4′-[(4-ethoxyphenyl)amide] 4-[(3-phenylpropyl)amide]] | – | – | – |
| < 5000 nM | 235 to 237 °C | CCOc1ccc(NC(=O)c2ccnc(N3CCC(C(=O)Nc4ccc(C)c(C)c4)CC3)c2)cc1 [VI-1002, 3,4,5,6-Tetrahydro-2H-[1,2′]bipyridinyl-4,4′-carboxylic acid 4-[(3,4-dimethylphenyl)amide] 4′-[(4-ethoxyphenyl)amide]] | – | – | – |
| < 5000 nM | 250 to 252 °C | CCOc1ccc(NC(=O)c2ccnc(N3CCC(C(=O)Nc4cc(C)cc(C)c4)CC3)c2)cc1 [VI-1003, 3,4,5,6-Tetrahydro-2H-[1,2′]bipyridinyl-4,4′-carboxylic acid 4-[(3,5-dimethylphenyl)amide] 4′-[(4-ethoxyphenyl)amide]] | – | – | – |
| < 5000 nM | 200 to 202 °C | CCOc1ccc(NC(=O)c2ccnc(N3CCC(C(=O)Nc4cccc(SC)c4)CC3)c2)cc1 [VI-1004] | – | – | – |
| < 5000 nM | 243 to 245 °C | CCOc1ccc(NC(=O)c2ccnc(N3CCC(C(=O)Nc4ccc(C(C)C)cc4)CC3)c2)cc1 [VI-1005, 3,4,5,6-Tetrahydro-2H-[1,2′]bipyridinyl-4,4′-carboxylic acid 4′-[(4-ethoxyphenyl)amide] 4-[(4-isopropylphenyl)amide]] | – | – | – |
| < 5000 nM | 182 to 184 °C | CCOc1ccc(NC(=O)c2ccnc(N3CCC(C(=O)Nc4ccccc4OC)CC3)c2)cc1 [VI-1006, 3,4,5,6-Tetrahydro-2H-[1,2′]bipyridinyl-4,4′-carboxylic acid 4′-[(4-ethoxyphenyl)amide] 4-[(2-methoxyphenyl)amide]] | – | – | – |
| < 500 nM | 252 to 255 °C | Cc1ccc(S(=O)(=O)N2CCCc3cc(C(=O)Nc4c(C)cc(C)cc4C)ccc32)cc1 [VII-1001, 1-Tosyl-1,2,3,4-tetrahydroquinoline-6-carboxylic acid (2,4,6-mesityl)amide] | – | – | Suppression of Gli1 expression (HGli mRNA) [2]: block effectively Hh-signalling cascade |

| Structure (SMILES) | IC50 (Hh-signalling cascade) | melting point | bioavailability [1] | MTD at 5 days [4] | also measured |
| --- | --- | --- | --- | --- | --- |
| COc1cccc(N2CCN(C(=O)Cn3nc(C)c4c(C)n(-c5ccccc5)nc4c3=O)CC2)c1 [I-1001, 2-Phenyl-3,4-dimethyl-6-{2-[4-(3-methoxyphenyl)piperazin-1-yl]-2-oxoethyl}-2,6-dihydro-7H-pyrazolo[3,4-d]pyridazin-7-one] | < 500 nM | – | 35% | > 200 mg/kg | Suppression of Gli1 expression (HGli mRNA) [2]: block effectively Hh-signalling cascade; half-life ([3]; PO, 5 mg/Kg): 2.08 h; Cmax ([3]; PO, 20 mg/Kg): 4460 ng/mL |
| Cc1ccn2cc(-c3cccc(NC(=O)c4sc(-c5ccccc5)nc4C)c3)nc2c1 [III-1017, 4-Methyl-2-phenylthiazol-5-carboxylic acid [3-(7-methylimidazo[1,2-a]pyridin-2-yl)phenyl]amide] | < 500 nM | – | 19% | > 200 mg/kg | Cmax ([3]; IP, 5 mg/Kg): 357 ng/mL; half-life ([3]; IP, 5 mg/Kg): 1.12 h; Cmax ([3]; PO, 5 mg/Kg): 398 ng/mL; half-life ([3]; PO, 5 mg/Kg): 0.917 h; Suppression of tumour growth in comparison with the control group [5, 6]: 27% |
| Cc1cccn2cc(-c3ccc(NC(=O)c4ccccc4Br)cc3)nc12 [III-1029, N-[4-(8-Methylimidazo[1,2-a]pyridin-2-yl)phenyl]-2-bromobenzamide] | < 500 nM | – | 75% | > 200 mg/kg | Suppression of Gli1 expression (HGli mRNA) [2]: block effectively Hh-signalling cascade; half-life ([3]; PO, dose not given): 0.983 h; Suppression of tumour growth in comparison with the control group ([5]; peroral 50 mg/kg, daily during 14 days): 67%; IC50 (Smo receptors): 259 nM |
| O=C(c1cc2sccc2n1Cc1ccc(Cl)cc1)N1CCC(C(=O)N2CCCCCC2)CC1 [V-1043, 1-[4-(4-Chlorobenzyl)-4H-thieno[3,2-b]pyrrole-5-carbonyl]piperidine-4-carboxylic acid hexamethylene amide] | < 5000 nM | – | 3% | > 200 mg/kg | Cmax ([3]; IP, 5 mg/Kg): 167 ng/mL; half-life ([3]; IP, 5 mg/Kg): 1.07 h; Cmax ([3]; PO, 5 mg/Kg): 71 ng/mL; IC50 (Smo receptors): 69 nM |
| CN1CCc2c(sc(NC(=O)C3CCCCC3)c2-c2nc3ccccc3s2)C1.Cl [VIII-1001, Cyclohexanecarboxylic acid (3-benzo[d]thiazol-2-yl-6-methyl-4,5,6,7-tetrahydrothieno[2,3-c]pyridin-2-yl)amide] | < 500 nM | – | – | > 100 mg/kg | Cmax ([3]; IP, 100 mg/Kg): 45 ng/mL; half-life ([3]; IP, 100 mg/Kg): 4.9 h |

From patent US8486945B2, “Heterocyclic inhibitors of an Hh-signal cascade, medicinal compositions based thereon and methods for treating diseases caused by the aberrant activity of an Hh-signal system” (priority 2007, dated 2013)
